Results from US8426408B2, “Pyrimidine inhibitors of kinases” (AbbVie Inc., priority 2009, dated 2013).

What was measured:
Format in all cases: biochemical
[1] = target: KDR (Homo sapiens, UniProt P35968); experiment: KDR HTRF in vitro kinase assay; set-up: purified enzyme (His6-KDR 789-1354, MW 63 kD); His6 (N); settings: 1 mM ATP; read-out: KDR enzyme inhibition data (Ki)
Outline: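 His6-KDR 789-1354 (7 ng/well) with 0.5 μM biotinylated peptide substrate and 1 mM ATP in HEPES pH 7.1, MgCl2/MnCl2, 60 min at room temperature. EDTA-quenched, detected by streptavidin-XL-665 plus Eu-kryptate anti-phosphotyrosine HTRF after 3 h; IC50 from 620/665 nm ratio.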

[2] = target: T1, Aurora B (Homo sapiens, UniProt Q96GD4); experiment: Aurora B enzyme inhibition (time-resolved fluorescence, histone H3 peptide); settings: 1 mM ATP
T1 construct: Active Aurora B enzyme (recombinant residues 1-344)
T1 sequence (Q96GD4 whole entry, the tested form may be a part): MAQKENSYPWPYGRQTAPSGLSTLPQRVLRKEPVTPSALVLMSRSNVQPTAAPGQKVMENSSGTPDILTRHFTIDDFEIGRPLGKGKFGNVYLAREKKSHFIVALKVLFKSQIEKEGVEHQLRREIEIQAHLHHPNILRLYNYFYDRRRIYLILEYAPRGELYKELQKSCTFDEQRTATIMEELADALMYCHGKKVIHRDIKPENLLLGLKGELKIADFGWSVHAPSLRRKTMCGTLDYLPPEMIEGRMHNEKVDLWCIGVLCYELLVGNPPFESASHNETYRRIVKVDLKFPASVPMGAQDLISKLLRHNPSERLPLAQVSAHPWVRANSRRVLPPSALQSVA
T1 sequence (Q9NQS7 826-918 partner limits assumed): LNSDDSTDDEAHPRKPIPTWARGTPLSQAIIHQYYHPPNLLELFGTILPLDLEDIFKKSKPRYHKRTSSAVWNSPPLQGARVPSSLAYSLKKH
Outline: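 Recombinant Aurora B (residues 1-344) with GST-INCENP phosphorylated biotinylated histone H3 (1-21) peptide at 1 mM ATP in HEPES pH 7.4 with MgCl2, orthovanadate and Triton X-100 for 1 h. After EDTA stop, the phosphopeptide was detected by TR-FRET (Eu-cryptate anti-phospho-H3 / SA-APC, 665/615 nm ratio). IC50 from an exponential fit.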

[3] = target: T2, Aurora A (Homo sapiens, UniProt O14965); experiment: Aurora A enzyme inhibition (time-resolved fluorescence, STK substrate-2); settings: 1 mM ATP
T2 sequence (O14965 1-403): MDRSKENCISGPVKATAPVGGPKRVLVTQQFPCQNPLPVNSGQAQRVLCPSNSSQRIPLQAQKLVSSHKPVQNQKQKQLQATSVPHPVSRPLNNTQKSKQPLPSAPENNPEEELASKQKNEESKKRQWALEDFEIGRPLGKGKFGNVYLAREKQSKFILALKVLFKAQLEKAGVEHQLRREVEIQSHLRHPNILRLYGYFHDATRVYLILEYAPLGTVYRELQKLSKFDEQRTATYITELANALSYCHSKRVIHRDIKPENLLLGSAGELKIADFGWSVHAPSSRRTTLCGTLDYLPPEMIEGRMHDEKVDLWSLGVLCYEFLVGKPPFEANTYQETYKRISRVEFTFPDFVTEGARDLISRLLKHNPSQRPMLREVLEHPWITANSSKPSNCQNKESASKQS
Outline: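 Active enzyme incubated 1 h with biotinylated STK substrate-2, 1 mM ATP and inhibitor in Hepes pH 7.4 with MgCl2, orthovanadate and Triton X-100. EDTA stop; phosphopeptide detected by Eu-cryptate anti-phospho-STK/SA-XL665 TR-FRET (665/615 nm ratio); IC50 by exponential fit.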

Measured: Ki

Chain of KDR (P35968 789-1354): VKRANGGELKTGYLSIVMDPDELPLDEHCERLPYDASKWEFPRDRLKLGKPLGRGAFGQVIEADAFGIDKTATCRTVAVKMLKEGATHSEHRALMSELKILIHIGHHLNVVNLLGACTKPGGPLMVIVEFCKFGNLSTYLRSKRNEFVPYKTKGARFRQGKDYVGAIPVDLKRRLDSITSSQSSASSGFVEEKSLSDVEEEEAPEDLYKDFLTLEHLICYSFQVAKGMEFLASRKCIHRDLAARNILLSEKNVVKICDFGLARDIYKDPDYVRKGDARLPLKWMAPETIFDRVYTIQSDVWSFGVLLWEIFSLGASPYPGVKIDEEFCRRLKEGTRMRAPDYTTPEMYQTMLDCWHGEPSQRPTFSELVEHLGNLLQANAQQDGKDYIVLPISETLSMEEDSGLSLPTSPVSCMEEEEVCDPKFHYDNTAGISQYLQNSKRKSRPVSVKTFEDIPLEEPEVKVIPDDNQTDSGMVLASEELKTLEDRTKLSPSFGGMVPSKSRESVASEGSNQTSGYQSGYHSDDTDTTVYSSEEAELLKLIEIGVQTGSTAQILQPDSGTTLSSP

CCn1cc(Nc2ncc(Cl)c(N[C@@H]3[C@H]4CC[C@H](C4)[C@@H]3C(N)=O)n2)cn1.CCn1cc(Nc2ncc(Cl)c(N[C@H]3[C@@H]4CC[C@@H](C4)[C@H]3C(N)=O)n2)cn1 (mixture of isomers) [Example 57, (1R,2S,3R,4S)-3-({5-chloro-2-[(1-ethyl-1H-pyrazol-4-yl)amino]pyrimidin-4-yl}amino)bicyclo[2.2.1]heptane-2-carboxamide and (1S,2R,3S,4R)-3-({5-chloro-2-[(1-ethyl-1H-pyrazol-4-yl)amino]pyrimidin-4-yl}amino)bicyclo[2.2.1]heptane-2-carboxamide]
< 0.1 µM: all assays above

NC(=O)[C@@H]1[C@H]2CC[C@H](C2)[C@@H]1Nc1nc(Nc2cnn(CCO)c2)ncc1Cl.NC(=O)[C@H]1[C@@H]2CC[C@@H](C2)[C@H]1Nc1nc(Nc2cnn(CCO)c2)ncc1Cl (mixture of isomers) [Example 59, (1R,2S,3R,4S)-3-[(5-chloro-2-{[1-(2-hydroxyethyl)-1H-pyrazol-4-yl]amino}pyrimidin-4-yl)amino]bicyclo[2.2.1]heptane-2-carboxamide and (1S,2R,3S,4R)-3-[(5-chloro-2-{[1-(2-hydroxyethyl)-1H-pyrazol-4-yl]amino}pyrimidin-4-yl)amino]bicyclo[2.2.1]heptane-2-carboxamide]
< 0.1 µM: all assays above

CNC(=O)Cn1cc(Nc2ncc(Cl)c(NC3C4CCC(C4)C3C(N)=O)n2)cn1 (racemic) [Example 61, (1R,2S,3R,4S)-3-{[5-chloro-2-({1-[2-(methylamino)-2-oxoethyl]-1H-pyrazol-4-yl}amino)pyrimidin-4-yl]amino}bicyclo[2.2.1]heptane-2-carboxamide and (1S,2R,3S,4R)-3-{[5-chloro-2-({1-[2-(methylamino)-2-oxoethyl]-1H-pyrazol-4-yl}amino)pyrimidin-4-yl]amino}bicyclo[2.2.1]heptane-2-carboxamide]
< 0.1 µM: all assays above

NC(=O)[C@@H]1[C@H](Nc2nc(Nc3cnn(CCN4CCOCC4)c3)ncc2Br)[C@H]2C=C[C@@H]1C2.NC(=O)[C@H]1[C@@H](Nc2nc(Nc3cnn(CCN4CCOCC4)c3)ncc2Br)[C@@H]2C=C[C@H]1C2 (mixture of isomers) [Example 39, (1S,2S,3R,4R)-3-[(5-bromo-2-{[1-(2-morpholin-4-ylethyl)-1H-pyrazol-4-yl]amino}pyrimidin-4-yl)amino]bicyclo[2.2.1]hept-5-ene-2-carboxamide and (1R,2R,3S,4S)-3-[(5-bromo-2-{[1-(2-morpholin-4-ylethyl)-1H-pyrazol-4-yl]amino}pyrimidin-4-yl)amino]bicyclo[2.2.1]hept-5-ene-2-carboxamide]
< 0.1 µM: all assays above

(1S,2S,3R,4R)-3-{[5-chloro-2-({1-[2-(4-methylpiperazin-1-yl)ethyl]-1H-pyrazol-4-yl}amino)pyrimidin-4-yl]amino}bicyclo[2.2.1]hept-5-ene-2-carboxamide and (1R,2R,3S,4S)-3-{[5-chloro-2-({1-[2-(4-methylpiperazin-1-yl)ethyl]-1H-pyrazol-4-yl}amino)pyrimidin-4-yl]amino}bicyclo[2.2.1]hept-5-ene-2-carboxamide [Example 46]
< 0.1 µM: all assays above

CC(=O)NCC(=O)N1CCC(n2cc(Nc3ncc(Cl)c(N[C@H]4[C@@H](C(N)=O)[C@@H]5C=C[C@H]4C5)n3)cn2)CC1 [Example 85, (1S,2S,3R,4R)-3-{[2-({1-[1-(N-acetylglycyl)piperidin-4-yl]-1H-pyrazol-4-yl}amino)-5-chloropyrimidin-4-yl]amino}bicyclo[2.2.1]hept-5-ene-2-carboxamide]
< 0.1 µM: all assays above

CN(C)C(=O)Cn1cc(Nc2ncc(Cl)c(N[C@@H]3[C@H](C(N)=O)[C@H]4C=C[C@@H]3C4)n2)cn1.CN(C)C(=O)Cn1cc(Nc2ncc(Cl)c(N[C@H]3[C@@H](C(N)=O)[C@@H]4C=C[C@H]3C4)n2)cn1 (mixture of isomers) [Example 54, (1S,2S,3R,4R)-3-{[5-chloro-2-({1-[2-(dimethylamino)-2-oxoethyl]-1H-pyrazol-4-yl}amino)pyrimidin-4-yl]amino}bicyclo[2.2.1]hept-5-ene-2-carboxamide and (1R,2R,3S,4S)-3-{[5-chloro-2-({1-[2-(dimethylamino)-2-oxoethyl]-1H-pyrazol-4-yl}amino)pyrimidin-4-yl]amino}bicyclo[2.2.1]hept-5-ene-2-carboxamide]
< 0.1 µM: all assays above

NC(=O)[C@@H]1[C@H](Nc2nc(Nc3cnn(CCN4CCCC4)c3)ncc2Br)[C@H]2C=C[C@@H]1C2 (racemic) [Example 44, (1S,2S,3R,4R)-3-[(5-bromo-2-{[1-(2-pyrrolidin-1-ylethyl)-1H-pyrazol-4-yl]amino}pyrimidin-4-yl)amino]bicyclo[2.2.1]hept-5-ene-2-carboxamide and (1R,2R,3S,4S)-3-[(5-bromo-2-{[1-(2-pyrrolidin-1-ylethyl)-1H-pyrazol-4-yl]amino}pyrimidin-4-yl)amino]bicyclo[2.2.1]hept-5-ene-2-carboxamide]
< 0.1 µM: all assays above

(1S,2S,3R,4R)-3-[(5-chloro-2-{[1-(1-methylpiperidin-4-yl)-1H-pyrazol-4-yl]amino}pyrimidin-4-yl)amino]bicyclo[2.2.1]hept-5-ene-2-carboxamide and (1R,2R,3S,4S)-3-[(5-chloro-2-{[1-(1-methylpiperidin-4-yl)-1H-pyrazol-4-yl]amino}pyrimidin-4-yl)amino]bicyclo[2.2.1]hept-5-ene-2-carboxamide [Example 40]
< 0.1 µM: all assays above

NC(=O)[C@@H]1[C@H](Nc2nc(Nc3cnn(CCN4CCCC4)c3)ncc2Cl)[C@H]2C=C[C@@H]1C2 (racemic) [Example 34, (1S,2S,3R,4R)-3-[(5-chloro-2-{[1-(2-pyrrolidin-1-ylethyl)-1H-pyrazol-4-yl]amino}pyrimidin-4-yl)amino]bicyclo[2.2.1]hept-5-ene-2-carboxamide and (1R,2R,3S,4S)-3-[(5-chloro-2-{[1-(2-pyrrolidin-1-ylethyl)-1H-pyrazol-4-yl]amino}pyrimidin-4-yl)amino]bicyclo[2.2.1]hept-5-ene-2-carboxamide]
< 0.1 µM: all assays above

CCn1cc(Nc2ncc(C(F)(F)F)c(N[C@@H]3[C@H](C(=O)NCCO)[C@H]4C=C[C@@H]3C4)n2)cn1.CCn1cc(Nc2ncc(C(F)(F)F)c(N[C@H]3[C@@H](C(=O)NCCO)[C@@H]4C=C[C@H]3C4)n2)cn1 (mixture of isomers) [Example 68, (1S,2S,3R,4R)-3-{[2-[(1-ethyl-1H-pyrazol-4-yl)amino]-5-(trifluoromethyl)pyrimidin-4-yl]amino}-N-(2-hydroxyethyl)bicyclo[2.2.1]hept-5-ene-2-carboxamide and (1R,2R,3S,4S)-3-{[2-[(1-ethyl-1H-pyrazol-4-yl)amino]-5-(trifluoromethyl)pyrimidin-4-yl]amino}-N-(2-hydroxyethyl)bicyclo[2.2.1]hept-5-ene-2-carboxamide]
< 0.1 µM: all assays above

NC(=O)[C@@H]1[C@H](Nc2nc(Nc3cnn(CCO)c3)ncc2Cl)[C@H]2C=C[C@@H]1C2 [Example 65, (1S,2S,3R,4R)-3-[(5-chloro-2-{[1-(2-hydroxyethyl)-1H-pyrazol-4-yl]amino}pyrimidin-4-yl)amino]bicyclo[2.2.1]hept-5-ene-2-carboxamide]
< 0.1 µM: all assays above
